Measured values from ChEMBL document CHEMBL5346936, “Functionalized sulfonyl anthranilic acid derivatives inhibit replication of all the four dengue serotypes” (Eur J Med Chem, 2023).
Calls of active or inactive are those of the source. The rule behind the calls is not given here.

What was measured:
dengue virus type 2 [1] = experiment: Antiviral activity against DENV-2 EDEN 3295 infected in 10^5 human Huh-7 cells at 0.3 MOI for 1 hr followed by compound treatment at 10 uM for 48 hrs relative to control; assay type: functional
dengue virus type 2 [2] = experiment: Antiviral activity against DENV-2 EDEN 3295 infected in 10^5 human Huh-7 cells at 0.3 MOI for 1 hr followed by compound treatment for 48 hrs; assay type: functional, organism-based; details: EDEN 3295, Huh-7
[3] = Cytotoxicity against human Huh-7 cells treated for 48 hrs measured by celltitre-glo luminescent assay; assay type: toxicity, cell-based
[4] = Selectivity index, ratio of CC50 for human Huh-7 cells to EC50 for antiviral activity against DENV-2 EDEN 3295; assay type: toxicity; details: read-out: Ratio CC50/EC50
dengue virus type 2 [5] = experiment: Inhibition of DENV-2 NS5 polymerase incubated for 1 hr measured at 30 uM by fluorescence based alkaline phosphate coupled polymerase assay
[6] = (§1) Inhibition of DENV-2 NS5 polymerase incubated for 1 hr measured by fluorescence based alkaline phosphate coupled polymerase assay; set-up: species or system dengue virus type 2
dengue virus type 2 [7] = experiment: as §1
dengue virus type 2 [8] = experiment: Antiviral activity against DENV-2 infected in human Huh-7 cells at MOI 1 assessed as reduction of intracellular viral titre at 10 uM, 2 hr prior to infection measured after 48 hrs measured by RT-PCR analysis; assay type: functional, organism-based; details: time 50.0 hrs
dengue virus type 2 [9] = experiment: Antiviral activity against DENV-2 infected in human Huh-7 cells at MOI 1 assessed as reduction of intracellular viral titre at 10 uM during infection measured after 48 hrs measured by RT-PCR analysis; assay type: functional, organism-based
dengue virus type 2 [10] = experiment: Antiviral activity against DENV-2 infected in human Huh-7 cells at MOI 1 assessed as reduction of intracellular viral titre at 10 uM measured after 2 hrs post infection by RT-PCR analysis; assay type: functional, organism-based
dengue virus type 2 [11] = experiment: Antiviral activity against DENV-2 infected in human Huh-7 cells at MOI 1 assessed as reduction of intracellular viral titre at 10 uM measured after 24 hrs post infection by RT-PCR analysis; assay type: functional, organism-based
dengue virus type 2 [12] = experiment: Antiviral activity against DENV-2 infected in human Huh-7 cells at MOI 1 assessed as log reduction of intracellular viral titre at 10 uM measured after 60 hrs post infection by RT-PCR analysis; assay type: functional
dengue virus type 2 [13] = experiment: Antiviral activity against DENV-2 infected in human Huh-7 cells assessed as reduction of viral protein NS3 expression at 10 uM for 12 hrs post infection by RT-PCR analysis; assay type: functional, organism-based
dengue virus type 2 [14] = experiment: Antiviral activity against DENV-2 infected in human Huh-7 cells assessed as reduction of viral protein NS5 expression at 10 uM for 12 hrs post infection by RT-PCR analysis; assay type: functional, organism-based
dengue virus type 2 [15] = experiment: Antiviral activity against DENV-2 infected with asian tiger mosquito C6/36 cells; assay type: functional, organism-based
dengue virus type 2 [16] = experiment: Antiviral activity against DENV-2 infected with hamster BHK-21 cells; assay type: functional, organism-based
dengue virus type 2 [17] = experiment: Antiviral activity against DENV-2 infected with green monkey Vero cells; assay type: functional, organism-based
dengue virus type 2 [18] = experiment: Antiviral activity against DENV-2 infected with human Calu-1 cells; assay type: functional, organism-based
dengue virus type 2 [19] = experiment: Antiviral activity against DENV-2 infected with human A549 cells; assay type: functional, organism-based
[20] = Cytotoxicity against asian tiger mosquito C6/36 cells; assay type: toxicity, cell-based; details: aedes albopictus
[21] = Cytotoxicity against hamster BHK-21 cells; assay type: toxicity, cell-based, Mesocricetus auratus
[22] = Cytotoxicity against green monkey Vero cells; assay type: toxicity, cell-based; details: chlorocebus sabaeus
[23] = Cytotoxicity against human Huh-7 cells; assay type: toxicity, cell-based
[24] = Cytotoxicity against human Calu-1 cells; assay type: toxicity, cell-based
[25] = Cytotoxicity against human A549 cells; assay type: toxicity, cell-based

## NC(=O)c1cc(Oc2cccc(Br)c2)ccc1NS(=O)(=O)c1cccc2cccnc12
Dengue virus type 2 [1]
  Activity: 27.5%

## CCCOc1ccc(NS(=O)(=O)c2cccc3cccnc23)c(C(=O)NCCCc2ccccc2)c1
Dengue virus type 2 [2]
  EC50: 3.9 µM
[3]
  CC50 at 48 h: > 100 µM
[4]
  selectivity ratio: > 25.6

## CCc1cccc(Oc2ccc(NS(=O)(=O)c3cccc4cccnc34)c(C(=O)NCc3ccc4c(c3)OCO4)c2)c1
Dengue virus type 2 [2]
  EC50: 5.9 µM
[3]
  CC50 at 48 h: > 100 µM
[4]
  selectivity ratio: > 16.9

## CCc1cccc(Oc2ccc(NS(=O)(=O)c3cccc4cccnc34)c(C(=O)NCc3ccccc3)c2)c1
Dengue virus type 2 [2]
  EC50: 3 µM
[3]
  CC50 at 48 h: > 100 µM
[4]
  selectivity ratio: > 32.8

## COc1ccc(NS(=O)(=O)c2cccc3cccnc23)c(C(=O)NCc2ccccc2)c1
Dengue virus type 2 [2]
  EC50: 4.8 µM
[3]
  CC50 at 48 h: > 100 µM
[4]
  selectivity ratio: > 20.8

## CCc1cccc(Oc2ccc(NS(C)(=O)=O)c(C(=O)NCc3ccccc3)c2)c1
Dengue virus type 2 [2]
  EC50: 44.9 µM
[3]
  CC50 at 48 h: 78.6 µM
[4]
  selectivity ratio: 1.75
Dengue virus type 2 [5]
  inhibition: inactive

## O=C(NCc1ccccc1)c1cc(Oc2cccc(Br)c2)ccc1NS(=O)(=O)c1ccc2c(c1)CCO2
Dengue virus type 2 [1]
  Activity: 32.5%

## C#C[C@@]1(O)[C@H](O)[C@@H](CO)O[C@H]1n1ccc2c(N)ncnc21
Dengue virus type 2 [2]
  EC50: 0.23 µM
[4]
  selectivity ratio: 434

## O=C(OC1=CS(=O)(=O)Nc2ccc(Oc3ccccc3Br)cc21)c1ccc(F)c(F)c1
[6]
  IC50: 18.4 µM

## O=C(NCc1ccccc1)c1cc(Oc2ccccc2)ccc1NS(=O)(=O)c1cccc2cccnc12
Dengue virus type 2 [2]
  EC50: 3.9 µM
[3]
  CC50 at 48 h: > 100 µM
[4]
  selectivity ratio: > 25.4

## CCCOc1ccc(NS(=O)(=O)c2cccc3cccnc23)c(C(=O)NC2CC2)c1
Dengue virus type 2 [2]
  EC50: 8.7 µM
[3]
  CC50 at 48 h: > 100 µM
[4]
  selectivity ratio: > 11

## O=C(NCc1ccccc1)c1cc(F)ccc1NS(=O)(=O)c1cccc2cccnc12
Dengue virus type 2 [1]
  Activity: 0%

## O=C(Nc1ccccc1)c1cc(Oc2cccc(Br)c2)ccc1NS(=O)(=O)c1cccc2cccnc12
Dengue virus type 2 [2]
  EC50: 4.4 µM
[3]
  CC50 at 48 h: 64.7 µM
[4]
  selectivity ratio: 14.7

## CCc1cccc(Oc2ccc(NS(C)(=O)=O)c(C(=O)NCc3ccc(F)c(F)c3)c2)c1
Dengue virus type 2 [2]
  EC50: 33.9 µM
[3]
  CC50 at 48 h: 41.1 µM
[4]
  selectivity ratio: 1.21
Dengue virus type 2 [5]
  inhibition: inactive

## CCCOc1ccc(NS(=O)(=O)c2cccc3cccnc23)c(C(=O)NCc2ccccc2)c1
[3]
  CC50 at 48 h: > 100 µM
Dengue virus type 2 [7]
  inhibition: inactive
Dengue virus type 2 [8]
  Activity: inactive
Dengue virus type 2 [9]
  Activity: inactive
Dengue virus type 2 [10]
  Activity: Active
Dengue virus type 2 [11]
  Activity: Active
Dengue virus type 2 [12]
  log(activity): 3
Dengue virus type 2 [13]
  Activity: Active
Dengue virus type 2 [14]
  Activity: Active
Dengue virus type 2 [15]
  EC50: > 10 µM
Dengue virus type 2 [16]
  EC50: 20 µM
Dengue virus type 2 [17]
  EC50: 1090 nM
Dengue virus type 2 [18]
  EC50: 180 nM
Dengue virus type 2 [19]
  EC50: 1380 nM
[20]
  CC50: > 100 µM
[21]
  CC50: > 25 µM
[22]
  CC50: > 25 µM
[23]
  CC50: > 100 µM
[24]
  CC50: > 100 µM
[25]
  CC50: > 100 µM

## COc1ccc(CNC(=O)c2cc(Oc3cccc(Br)c3)ccc2NS(C)(=O)=O)cc1OC
Dengue virus type 2 [2]
  EC50: 48.8 µM
[3]
  CC50 at 48 h: 100 µM
[4]
  selectivity ratio: 2.05
Dengue virus type 2 [5]
  inhibition: inactive

## O=C(NCc1ccc(F)c(F)c1)c1cc(Oc2cccc(Br)c2)ccc1NS(=O)(=O)c1cccc2cccnc12
Dengue virus type 2 [2]
  EC50: 5.6 µM
[3]
  CC50 at 48 h: > 100 µM
[4]
  selectivity ratio: > 17.8

## CCCOc1ccc(NS(=O)(=O)c2cccc3cccnc23)c(C(=O)NCCN2CCCCC2)c1
Dengue virus type 2 [1]
  Activity: 20%

## O=C(NCc1ccccc1)c1cc(Oc2cccc(Br)c2)ccc1NS(=O)(=O)c1ccc(F)c(F)c1
Dengue virus type 2 [2]
  EC50: 12.5 µM
[3]
  CC50 at 48 h: 44.5 µM
[4]
  selectivity ratio: 3.56

## CCCOc1ccc(NS(=O)(=O)c2cccc3cccnc23)c(C(=O)N2CCc3ccccc3C2)c1
Dengue virus type 2 [2]
  EC50: 6.1 µM
[3]
  CC50 at 48 h: > 100 µM
[4]
  selectivity ratio: > 16.4

## CCCOc1ccc(NS(=O)(=O)c2cccc3cccnc23)c(C(=O)NC2CCCc3ccccc32)c1 (stereo not drawn)
Dengue virus type 2 [2]
  EC50: 1.9 µM
[3]
  CC50 at 48 h: > 100 µM
[4]
  selectivity ratio: > 52.6

## COc1ccc(CNC(=O)c2cc(Oc3cccc(Br)c3)ccc2NS(=O)(=O)c2cccc3cccnc23)cc1OC
Dengue virus type 2 [1]
  Activity: 50%

## O=C(NCc1ccccc1)c1cc(Oc2cccc(Br)c2)ccc1NS(=O)(=O)c1cccs1
Dengue virus type 2 [1]
  Activity: 0%

## O=C(NCc1ccccc1)c1cc(Oc2cccc(Br)c2)ccc1NS(=O)(=O)c1cccnc1
Dengue virus type 2 [1]
  Activity: 12.5%

## O=C(NCc1ccccc1)c1cc(OCC2CCCCC2)ccc1NS(=O)(=O)c1cccc2cccnc12
Dengue virus type 2 [1]
  Activity: 45%

## CCCOc1ccc(NC(=O)c2cccc3cccnc23)c(C(=O)NCc2ccccc2)c1
Dengue virus type 2 [2]
  EC50: 5.6 µM
[3]
  CC50 at 48 h: > 100 µM
[4]
  selectivity ratio: > 17

## CCc1cccc(Oc2ccc(NS(C)(=O)=O)c(C(=O)N[C@H](C)c3ccccc3)c2)c1
Dengue virus type 2 [2]
  EC50: 17.9 µM
[3]
  CC50 at 48 h: 51.1 µM
[4]
  selectivity ratio: 2.85
Dengue virus type 2 [5]
  inhibition: inactive

## CCCOc1ccc(NS(=O)(=O)c2cccc3cccnc23)c(C(=O)N(CC)Cc2ccccc2)c1
Dengue virus type 2 [1]
  Activity: 25%

## COc1ccc(C(=O)NCc2ccccc2)c(NS(=O)(=O)c2cccc3cccnc23)c1
Dengue virus type 2 [1]
  Activity: 0%

## O=C(NCc1ccccc1)c1cc(Oc2cccc(Br)c2)ccc1NS(=O)(=O)c1cccc2cccnc12
Dengue virus type 2 [2]
  EC50: 7.3 µM
[3]
  CC50 at 48 h: > 100 µM
[4]
  selectivity ratio: > 13.6

## CCCOc1ccc(NS(=O)(=O)c2cccc3cccnc23)c(C(=O)NC(CC)CC)c1
Dengue virus type 2 [2]
  EC50: 2.2 µM
[3]
  CC50 at 48 h: > 100 µM
[4]
  selectivity ratio: > 45

## CCCOc1ccc(NS(=O)(=O)c2cccc3cccnc23)c(C(=O)NCCc2ccccc2)c1
Dengue virus type 2 [2]
  EC50: 2.2 µM
[3]
  CC50 at 48 h: > 100 µM
[4]
  selectivity ratio: > 45.5

## CS(=O)(=O)Nc1ccc(Oc2cccc(Br)c2)cc1C(=O)NCc1ccc(F)c(F)c1
Dengue virus type 2 [2]
  EC50: 42.6 µM
[3]
  CC50 at 48 h: 40.3 µM
Dengue virus type 2 [5]
  inhibition: inactive

## CCCOc1ccc(NS(=O)(=O)c2cccc3ccccc23)c(C(=O)NCc2ccccc2)c1
Dengue virus type 2 [1]
  Activity: 0%

## O=C(NCc1ccccc1)c1cc(Oc2cccc(Br)c2)ccc1NS(=O)(=O)N1CCOCC1
Dengue virus type 2 [1]
  Activity: 0%

## O=C(NCc1ccccc1)c1ccccc1NS(=O)(=O)c1cccc2cccnc12
Dengue virus type 2 [1]
  Activity: 0%

## CCCOc1cc(C(=O)NCc2ccccc2)ccc1NS(=O)(=O)c1cccc2cccnc12
Dengue virus type 2 [1]
  Activity: 0%

## CS(=O)(=O)Nc1ccc(Oc2cccc(Br)c2)cc1C(=O)NCc1ccccc1
Dengue virus type 2 [2]
  EC50: 47.5 µM
[3]
  CC50 at 48 h: 66.4 µM
[4]
  selectivity ratio: 1.39
Dengue virus type 2 [5]
  inhibition: inactive

## CCCOc1ccc(NS(=O)(=O)c2cccc3cccnc23)c(C(=O)NC2CCC2)c1
Dengue virus type 2 [2]
  EC50: 2.5 µM
[3]
  CC50 at 48 h: > 100 µM
[4]
  selectivity ratio: > 40
